For test [1] the following is noted: prior art; cited from earlier work.
A further test concerns Z. bailii. As to the kind of experiment: Antimicrobial efficacy of emulsions, growth measured by optical density at 600 nm. In kind it is cell-based, Zygosaccharomyces bailii. As to conditions: time course; 45.5 ppm thyme oil and 13 ppm LAE emulsion, or 13 ppm lauric arginate alone; FIG. 4. Here is the method: Antimicrobial efficacy of emulsions of the invention is assessed by back diluting a mid-log phase, overnight culture of Z. bailii 1:100 into fresh acidified (pH 5) yeast peptone dextrose broth and adding the appropriate concentration of emulsion. Emulsions are prepared and tested in duplicate. Controls of lauric arginate are prepared in the same buffer with corn oil substituted for essential oil, at the same concentration. To test thyme oil alone, ethanol is used as a vehicle to solubilize the thyme oil in the microbiological media.
The antimicrobial efficacy of the formulations was evaluated against the relevant spoilage organism Z. bailii after 72 hours of incubation, as measured by optical density at 600 nm. See FIG. 3 which compares the growth of Z. bailii under differing conditions. Z. bailii was treated to emulsions comprising 52.5 ppm Thyme oil and 15 ppm lauric arginate (LAE); 52.5 ppm Thyme essential oil alone; or 15 ppm lauric arginate alone. […]
Additional studies were conducted in order to ascertain the temporal component of lauric arginate activity. […] Cells are treated to 45.5 ppm Thyme oil and 13 ppm lauric arginate (LAE) emulsion; 45.5 ppm Thyme essential oil alone; or 13 ppm lauric arginate alone, and the OD600 of the cultures were measured over time. […]

Regarding `Cc1ccc(C(C)C)c(O)c1` [thymol], in test [1], the “synergy with lauric arginate” value is “not to possess synergy”.

With `CCCCCCCCCCCC(=O)N[C@@H](CCCN=C(N)N)C(=O)OCC` [lauric arginate, Lauric arginate], the “growth inhibition over time (OD600)” value in the test with Z. bailii is “not inhibitory”.

On to `Cc1ccc(C(C)C)cc1O` [carvacrol], for which the “level at which synergy with lauric arginate was reported” value in test [1] is 60 ppm.
